The results in this text go back to ChEMBL document CHEMBL4825699, “Metabolic and conformational stabilization of a VEGF-mimetic beta-hairpin peptide by click-chemistry” (Eur J Med Chem, 2021).

By half-life is commonly meant the time in which the quantity being followed falls by half.

Data set [1] has as its system HUVEC. Put plainly: Binding affinity to VEGFR in human HUVEC assessed as induction of cell proliferation measured after 24 to 48 hrs by CyQuant NF Cell Proliferation assay. Particulars: dose 25-50 nM, time 24-48 hrs.
Data set [2] relates to HUVEC. As to the kind of experiment: Binding affinity to VEGFR in human HUVEC assessed as induction of cell proliferation at 50 nM measured after 48 hrs in presence of 250 nM VEGFR1D2 by CyQuant NF Cell Proliferation assay.
Data set [3] relates to HUVEC. Put plainly: Cytotoxicity against human HUVEC assessed as reduction in cell viability at 50 nM measured after 48 hrs by CyQuant NF Cell Proliferation assay. Particulars: 0.05 µM. It counts as cell-based.
Data set [4] relates to HUVEC. Put plainly: Pro-angiogenic activity in human HUVEC assessed as organization into capillary network formation by measuring increase in branch points number counting at 50 nM measured after 6 hrs by inverted microscopy relative to HPLW. It counts as functional.
Data set [5] in a line: Metabolic stability of the compound in 50% human serum incubated for 120 mins by RP-HPLC analysis. It counts as ADME, cell-free. The conditions noted are these: read-out: Stabilty.
Data set [6] relates to HUVEC. As to the kind of experiment: Binding affinity to VEGFR in human HUVEC assessed as induction of cell proliferation at 25 to 50 nM measured after 48 hrs by CyQuant NF Cell Proliferation assay relative to HPLW. The conditions noted are these: dose 25-50 nM.
For data set [7], the system named is HUVEC. As to the kind of experiment: Binding affinity to VEGFR in human HUVEC assessed as induction of cell proliferation at 25 to 50 nM measured after 48 hrs by CyQuant NF Cell Proliferation assay relative to control. The conditions noted are these: dose 25-50 nM.
Data set [8] relates to HUVEC. Put plainly: Pro-angiogenic activity in human HUVEC assessed as organization into capillary network formation by measuring increase in branch points number counting at 50 nM measured after 6 hrs by inverted microscopy relative to Ac-HPLW-NH2. It counts as functional.
Data set [9] concerns HUVEC. As to the kind of experiment: Binding affinity to VEGFR in human HUVEC assessed as induction of cell proliferation at 25 to 50 nM measured after 48 hrs by CyQuant NF Cell Proliferation assay relative to Ac-HPLW-NH2. Particulars: dose 25-50 nM.
The nature of data set [10]: Metabolic stability of the compound in 50% human serum assessed as drug degradation incubated for 120 mins by RP-HPLC analysis. Particulars: read-out: Drug degradation. It counts as ADME, cell-free.
Data set [11] is described as follows: Metabolic stability of the compound in 50% human serum assessed as half life by RP-HPLC analysis. It counts as ADME, cell-free.

Active and inactive are the calls of the source. No cut-off for these calls is given here.

As to `CC[C@H](C)[C@@H]1NC(=O)[C@@H](NC(=O)[C@H](CC(C)C)NC(=O)[C@H](CC(C)C)NC(=O)[C@H](CCC(N)=O)NC(=O)[C@H](CCCCN)NC(C)=O)CCCc2cn(nn2)CCC[C@@H](C(=O)N[C@@H](Cc2ccc(O)cc2)C(=O)N[C@@H](Cc2c[nH]c3ccccc23)C(=O)N[C@H](C(=O)N[C@@H](CO)C(N)=O)[C@@H](C)O)NC(=O)[C@@H]2CCCN2C(=O)[C@H](CCCNC(=N)N)NC(=O)[C@H](CC(=O)O)NC(=O)CNC(=O)[C@H](CO)NC(=O)[C@H](CCCNC(=N)N)NC1=O`, the Activity result in the data set with HUVEC [1] was “Toxic”; with HUVEC [3], “Non-Toxic”; with HUVEC [4], 13%; in the data set with HUVEC [6] it was 37%; in the data set with HUVEC [7], 92%; in the data set on HUVEC [8], 28%. Further, in the data set on HUVEC [9], the Activity is 30%. For the same molecule, the outcome in the data set with HUVEC [2] was inactive. Moreover, the remaining at 2 h in data set [5] came out at 100%.
As to Ac-KQLLWIRSGDRPWYYTS-NH2, the Activity result is “Dose-Dependent Effect” in the data set with HUVEC [1] and “Non-Toxic” in the data set on HUVEC [3]. The outcome with HUVEC [2] was inactive. For the same molecule, in data set [10], the metabolised at 2 h is 100%. The half-life in data set [11] amounted to 25 min.
The matching figures for H-KQLLWIRSGDRPWYYTS-OH: “Dose-Dependent Effect”, “Non-Toxic”, “inactive”, 100% and 25 min.
